Experimental data: US7655801B2, “Substituted carbamic acid quinolin-6-yl esters useful as acetylcholinesterase inhibitors” (priority 2004, dated 2010)

Assays:
[1] = test system: scopolamine induced deficit (dementia/amnesia) in mice; assay: Scopolamine induced amnesia, single trial passive avoidance test; assay type: in vivo; conditions: test compounds 20 μmol/kg orally, donepezil 10 mg/kg po; for change in vivo at 20 µmol/kg: Mus musculus, read-out: % Improvement in Learning (% Learning in treated gp − % Learning in Scopolamine gp); for % Learning ([2nd Trial − 1st trial/1st trial] × 100): scopolamine group 33.6, trained control 274.9
Protocol: Single trial passive avoidance is widely used as experimental test to assess learning memory functions in rodents.
Passive Avoidance Test (in vivo): Study was conducted in adult Swiss male mice of 3-4 months (wt. 20-25 g) which were kept in standard housing condition with 12 h light and dark cycle. Food and water were available ad libitum. […] Passive avoidance test was studied by a computerized shuttle box (Columbus Instruments, Ohio, USA) provided with a software program PACS 30. The shuttle box comprises of two compartments, isolated by an automated door. […] Each mouse was placed in the bright compartment and on transfer into the dark compartment it was given an electric shock (0.5 mA for 5 s) through floor grid. Transfer of mice from bright to dark compartment was recorded as transfer latency time (TLT) in seconds. TLT was recorded in control and treated groups (1st Trial, acquisition) and then after 24 hours (2nd Trial, retention). An increase in the TLT on 2nd Trial (retention) as compared to 1st Trial (acquisition) was taken as the criterion for successful learning and memory (cognitive activity).
Scopolamine induced deficit (Dementia): Scopolamine a muscarinic antagonist, known to produce impairment in cognitive functions (dementia) in human as well as in experimental animals, was used to produce deficit (no significant increase on 2nd trial) in passive avoidance learning. Scopolamine was administered 5 min prior to 1st trial. Reversal of scopolamine induced deficit i.e. significant increase in 2nd trial by test substance indicates potential anti-dementia activity. […].
Drug administration: Scopolamine was administered 5 min prior to 1st trial in test group. Each test compound was administered orally in dose of 20 μmol/kg (1% aq. suspension in gum acacia) 1 hour prior to 2nd trial in scopolamine treated mice (n=5). Scopolamine control group received 1 ml/kg of vehicle (1% aq. suspension in gum acacia) orally. […] Donepezil (10 mg/kg, po, as 1% aqueous suspension in gum acacia) was used as standard drug and given 1 hour prior to 2nd trial in scopolamine treated mice.
Statistical analysis: Mean values and standard error (S.E.) of mean were calculated for TLT and specific activity of AChE in the different regions of brain samples of each group. The significance of difference between the values of AChe activity and TLT between the groups was determined by one-way ANOVA test that followed by Dunnett's test.

[2] = target: T1, AChE (Rattus norvegicus, UniProt P37136); assay: Inhibitive effect on acetylcholinesterase activity (Ellman method, rat brain homogenate supernatant); assay type: biochemical; conditions: for Cholinesterase Enzyme Activity in presence of active drug: control AChE activity 0.014446; for % Cholinesterase Enzyme Activity in presence of active drug: relative to control AChE activity
T1 construct: Aliquots of this supernatant was diluted in the ratio of 1:10 and used as a source of enzyme for the assay; from tissue; host or cells: whole brain of adult male SD rats; 10% homogenate with Triton X-100, 100,000 x g supernatant
T1 sequence (P37136 32-614): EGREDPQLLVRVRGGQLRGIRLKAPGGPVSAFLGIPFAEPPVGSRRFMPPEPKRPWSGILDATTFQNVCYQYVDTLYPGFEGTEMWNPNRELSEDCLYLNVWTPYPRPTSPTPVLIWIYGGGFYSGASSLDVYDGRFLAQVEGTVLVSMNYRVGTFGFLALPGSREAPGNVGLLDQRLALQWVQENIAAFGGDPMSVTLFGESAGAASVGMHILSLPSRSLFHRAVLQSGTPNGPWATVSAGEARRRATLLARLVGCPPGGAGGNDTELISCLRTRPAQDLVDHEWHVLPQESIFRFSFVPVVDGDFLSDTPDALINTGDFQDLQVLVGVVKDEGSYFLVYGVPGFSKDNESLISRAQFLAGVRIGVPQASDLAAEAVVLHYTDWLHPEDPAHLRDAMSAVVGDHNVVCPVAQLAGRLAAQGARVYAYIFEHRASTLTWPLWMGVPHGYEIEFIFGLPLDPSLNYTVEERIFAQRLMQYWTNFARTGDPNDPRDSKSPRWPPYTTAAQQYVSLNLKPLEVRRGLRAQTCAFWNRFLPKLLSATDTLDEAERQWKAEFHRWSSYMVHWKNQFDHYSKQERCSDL
Protocol: The study was conducted in adult SD male rats (200-250 g) Rats were perfused under mild ether anesthesia through heart with ice cooled normal saline (0.9% NaCl) to reduce blood-borne cholinesterase from brain. After perfusion whole brain was taken out. 10% (w/v) homogenate of brain was prepared first by homogenizing in Ultra-Turrax T25 homogenizer at a speed of 9500 rpm thrice giving intervals for few seconds in between the runs, with sodium phosphate buffer (30 mmol/lit, pH 7.0). Sodium phosphate buffer was taken in a volume half to the final volume required for 10% homogenate. 1% Triton X-100 (1% w/v in 30 mmol/lit. sodium phosphate buffer, pH 7.0) is then added in a volume to make the final volume for 10% homogenate, slowly while stirring the homogenate on ice.
Kinetic profile of the enzyme activity was studied spectrophotometrically at 412 nm at an interval of 15 s. Assay for each sample was run in duplicate and each experiment was performed thrice.
[…] Tacrine (1 μmol) was used as standard AChe inhibitor (standard control). The AChe inhibitory activity was calculated on the basis of % decrease change from control values i.e. AChe acivity without incubation with any standard or test drug.

[3] = scopolamine treated mice, 1 hour prior to 2nd trial

Structure (SMILES) | 2nd TRIAL (retention, after 24 hours) transfer latency time (TLT) [1, 3] [s] | % Learning ([2nd Trial − 1st trial/1st trial] × 100) ([1]; scopolamine treated mice) [%] | % Improvement in Learning (% Learning in treated gp − % Learning in Scopolamine gp) [1] [%] | further results
CN1CCCc2cc(OC(=O)Nc3ccc(Br)cc3)ccc21 [2r, (4-bromophenyl)carbamic acid 1-methyl-1,2,3,4-tetrahydroquinolin-6-yl ester] | 242 | 95.6 |  | change in vivo at 20 µmol/kg ([1]; scopolamine treated mice): 62%
O=C(Nc1ccccc1Cl)Oc1ccc2ncccc2c1 [1c] | 230 | 156.7 | 123.09 | 1st TRIAL (acquisition) transfer latency time (TLT) [1, 3]: 89.6 s
COc1cc2c(cc1OC)C(=O)C(CC1CCN(Cc3ccccc3)CC1)C2 (centres unmarked) [DONEPEZIL, donepezil, reference compound] | 245 | 168 | 134.4 | 
O=C(Nc1cccc(Br)c1)Oc1ccc2c(c1)CCCN2 [2c, (3-Bromo-phenyl)-carbamic acid 1,2,3,4-tetrahydro-quinolin-6-yl ester] | 195 | 101 | 67.4 | 
CCCCCCCNC(=O)Oc1ccc2ncccc2c1 [1b, Heptyl-Carbamic Acid quinolin-6-yl ester] | 238 | 140.4 | 106.8 | 
O=C(Nc1ccccc1Cl)Oc1ccc2c(c1)CCCN2Cc1ccccc1 [2i, (2-Chloro-phenyl)carbamic acid 1-benzyl-1,2,3,4-tetrahydro-quinolin-6 yl ester] | 186.4 | 123.2 | 89.6 | Cholinesterase Enzyme Activity in presence of active drug ([2]; drug conc. 0.1 μm): 0.01351 μmol/mg of protein/min; % Cholinesterase Enzyme Activity in presence of active drug ([2]; drug conc. 0.1 μm): 93.54%; Cholinesterase Enzyme Activity in presence of active drug ([2]; drug conc. 0.3 μm): 0.01211 μmol/mg of protein/min; % Cholinesterase Enzyme Activity in presence of active drug ([2]; drug conc. 0.3 μm): 83.87%; Cholinesterase Enzyme Activity in presence of active drug ([2]; drug conc. 1 μm): 0.01071 μmol/mg of protein/min; % Cholinesterase Enzyme Activity in presence of active drug ([2]; drug conc. 1 μm): 74.19%; Cholinesterase Enzyme Activity in presence of active drug ([2]; drug conc. 3 μm): 0.007456 μmol/mg of protein/min; Cholinesterase Enzyme Activity in presence of active drug ([2]; drug conc. 10 μm): 0.001864 μmol/mg of protein/min; % Cholinesterase Enzyme Activity in presence of active drug ([2]; drug conc. 10 μm): 12.90%; % Cholinesterase Enzyme Activity in presence of active drug [2]: 51.61%
CN1CCCc2cc(OC(=O)Nc3ccc(Cl)c(C(F)(F)F)c3)ccc21 [2q, (4-Chloro-3-trifluoromethyl-phenyl)-carbamic acid 1-methyl-1,2,3,4-tetrahydro-quinolin-6-yl ester] | 218 | 109 |  | change in vivo at 20 µmol/kg ([1]; scopolamine treated mice): 76%
CCCCCCNC(=O)Oc1ccc2c(c1)CCCN2Cc1ccccc1 [2h, Hexyl-carbamic acid 1-benzyl-1,2,3,4-tetrahydro-quinolin-6-yl ester] | 205 | 122.8 | 89.2 | 
